{"source": "patent US20170189443A1", "about": "“COMPOSITIONS AND METHODS FOR TREATMENT OF DISEASES AND CONDITIONS EMPLOYING ORAL ADMINISTRATION OF SODIUM PENTOSAN POLYSULFATE AND OTHER PENTOSAN POLYSULFATE SALTS” (URIGEN PHARMACEUTICALS, INC., priority 2014, published 2017)", "origin": "cited, not measured here", "key": {"interstitial cystitis [1]": {"system": "interstitial cystitis", "conditions": "intravesical instillations"}, "interstitial cystitis [2]": {"system": "interstitial cystitis", "conditions": "intravesical"}, "[3]": {"conditions": "oral administration"}, "[4]": {"conditions": "tritiated pentosan polysulfate, healthy human volunteers, Simon et al. 2005"}}, "note": "Like-named read-outs stand apart in the source and are kept apart here."}
{"compound": "C[S+](C)[O-]", "note": "[DMSO, dimethylsulfoxide]", "values": [{"measurement": "IC patients treated with benefit", "setting": "interstitial cystitis [1]", "result": "~50", "unit": "%"}]}
{"compound": "O=S(=O)(O)CCS", "note": "[Mesnex, mesna]", "values": [{"measurement": "frequency of adverse events (all AEs)", "setting": "IV", "result": 85, "unit": "%"}, {"measurement": "frequency of adverse events (all AEs)", "setting": "oral", "result": 89, "unit": "%"}]}
{"compound": "heparin", "values": [{"measurement": "patients treated in whom the agent is effective", "setting": "interstitial cystitis [2]", "result": "approximately 50%"}]}
{"compound": "sodium pentosan polysulfate", "values": [{"measurement": "oral availability", "setting": "[3]", "result": "2-6%"}, {"measurement": "excreted through urine", "setting": "[4]", "result": 6, "unit": "%"}, {"measurement": "excreted unchanged in feces", "setting": "[4]", "result": "more than 94%"}]}
